Test [1] concerns Intracellular ROS production. Briefly: Real-time ROS production (DCF assay). It counts as cell-based. As to conditions: dose-independent, even at highly toxic MMS 80 μg/mL. The protocol:
Intracellular ROS production was detected using DCFH-DA probe (Sigma) (Zanotto-Filho et al., 2010, Cancer Lett 288, 192-203). This reagent enters the cells and reacts predominantly with highly oxidizing species of ROS, such as hydroxyl radicals, hydroperoxides, and peroxynitrite, thus producing the fluorophore DCF. Briefly, cells were seeded in black-edge clear bottom 96-well plates. After reaching 70% confluence, medium was changed and cells were incubated with 20 μM DCFH-DA dissolved in medium containing 0.5% FBS. After 1 h pre-incubation to allow DCFH-DA uptake, treatments were added to its respective final concentrations and DCF fluorescence was monitored at 0.5, 1, 3, 8, 12, 16 and 24 h in a fluorescence reader (Ex/Em=485/532 nm). Hydrogen peroxide was used as a positive control and N-acetylcysteine (NAC), GSH-ethyl-ester (GSH-E) and Trolox were used as antioxidant standards. As a control, at the end of 24 h, cell viability was assessed and compared to wells in the absence of DCFH-DA.

The test system of test [2] is Intracellular glutathione levels. Briefly: Glutathione assay. It counts as cell-based. Here is the method: Intracellular glutathione levels were measured using the Glutathione (GSH/GSSG/Total) Fluorometric Assay Kit (BioVision Incorporated, Calif.), following manufacturer protocol. Briefly, 1×10^6 cells were scraped in PBS and centrifuged. Pellets were resuspended in 100 μL Glutathione assay buffer. 60 μL of this homogenate was mixed with PCA (perchloric acid) and centrifuged. Supernatant containing small molecules including GSH were neutralized with KOH and 3 fractions were collected and separated to analyze reduced (GSH), oxidized (GSSG) and total glutathione forms (GSH+GSSG) by reaction with OPA probe (o-phthalaldehyde) in the presence or absence of GSH quencher or reducing agents depending on the compound to be determined. Fluorescence was monitored at Ex/Em=340/420 nm for 40 min. Glutathione forms were calculated and normalized by protein (Bradford's assay).

In a further test the test system is MEFs. The test is described as follows: Metabolomics of GSH metabolites in MEFs. The conditions noted are these: MMS 40 μg/mL. It counts as cell-based, mouse. The protocol: The 2.4×10^6 Kc167 or 2×10^6 MEFs were seeded using complete growth medium on Day 0 in a T-175 cell culture flask and were allowed to grow for three days. After treatments with MMS (40 μg/mL), cells were harvested and centrifuged at 8 and 24 hours, and washed using ice-cold PBS. The cell numbers were adjusted to 90×10^6 (Kc167) or 24×10^6 (MEF) and provided as 100 μL of packed cell pellet for metabolic profiling. Metabolomic profiling and data analysis was provided through mView service performed by Metabolon Inc., Durham, N.C. Five biological replicates of each group were used for analysis at each time point. In addition, detailed changes in nucleotide pools were measured in a separate set of experiments. Nucleotide quantification and Metabolomics Pathway Enrichment Analyses were performed through MetaboAnalyst 2.0 (Xia et al., 2012, Nucleic Acids Res 40(Web Server issue), W127-33; Xia et al., 2009, Nucleic Acids Res 37(Web Server issue), W652-60).

The next test deals with MDA-MB231 cells. The test is described as follows: Extracellular matrix invasion assay (Boyden chamber). It counts as cell-based, human. As to conditions: CM from sorafenib or sorafenib plus MMS/4-HC vs CM from MMS or 4-HC alone. The protocol:
(§1) Quantification of MMP1 and MMP3 content in culture medium was assessed using RayBio-MMP3 and RayBio-MMP1 Elisa Kit (RayBiotech, Inc); IL8 was analyzed by Human IL-8 Elisa kit (Pierce Biotechnology). The levels of prostaglandin E2 (PGE2) were determined using the Prostaglandin E2 EIA Kit Monoclonal (Cayman Chemical Company). Culture media were diluted to fit within the standard curves. For conditioned media (CM) preparation for invasion and in vitro angiogenesis experiments, 12-well plated cells were treated with MMS (or MMS plus inhibitors) for 8 h in the presence of 10% FBS, twice washed with HBSS, and incubated with 700 μL drug/serum-free fresh medium for additional 12 h. Thereafter, the conditioned fresh medium was collected and directly used for migration and invasion experiments in order to reduce freezing associated loss of activity.
The invasion potential of breast cancer cells was estimated using the QCM™ 24-Well Cell Invasion Assay Fluorimetric (Millipore). Serum starved cells were trypsinized, trypsin-inhibited, centrifuged, resuspended to 5000 cells/μL, and 50 μL of this suspension (250,000 cells) was seeded on 8 μm pore size inserts coated with extracellular matrix in serum-free conditions. Afterwards, 200 μL conditioned (CM) or fresh medium without serum was added to top chambers. The bottom chamber consisted of 500 μL of DMEM supplemented with 10% FBS as chemoattractant. Cells were allowed to migrate for 24 h at 37° C. under 5% CO2. Invaded cells were detached from the bottom side of the insert, lysed and incubated with CyQuant GR fluorescent Dye for 15 min. Fluorescence was read at Ex/Em=480/520 nm. Percentage of invading cells was compared to cell number standard curves.

In another test the test system is human endothelial cells. Briefly: In vitro angiogenesis (Angiophase kit, CD31). It counts as cell-based. As to conditions: CM from sorafenib treatments. Here is the method:
as §1
The Angiophase kit (MBL Inc.) was used to assess the angiogenic potential of conditioned media (CM) from breast cancer cells or the direct effect of pharmaceutical inhibitors (free-drug system) on vessel-like structures formation in vitro. With this kit, human endothelial cells are co-cultured in a specially designed medium to form threadlike tubule structures. These gradually join up to form a network of anastomosing tubules, which resemble the capillary bed found in the CAM assay. Kit-provided cryopreserved co-culture of human endothelial cells were plated and kept for 96 h (proliferative phase) without treatments. Afterwards, the cells were maintained in the presence of conditioned medium from alkylating agent treated cells or control medium for a total of 14 days (angiogenic/vasculogenic phase). Medium was changed each 2 days. At the end of treatments, the cells were fixed and immune-stained for CD31 (PECAM-1), following by incubation with secondary antibody conjugate. ELISA was developed using the soluble substrate p-nitrophenyl-phosphate (p-NPP) whose product was colorimetrically read at 405 nm. After ELISA assays, the wells were washed with dH2O and tubule staining was performed by incubating CD31-stained tubules with the substrate BCIP/NBT, which form insoluble precipitates. Tubules were counted and photographed for qualitative monitoring.

From patent US10231958B2, “Methods and compositions for enhancing chemotherapy” (THE BOARD OF REGENTS OF THE UNIVERSITY OF TEXAS SYSTEM, priority 2015, dated 2019) come the findings set out here.

Turning to `COS(C)(=O)=O` [MMS, methyl-methanesulfonate], the “increase in ROS” value in test [1] was determined as 1.5 fold. Further, the glutathione metabolites entry in test [2] (higher levels of MMS, as early as 8 h) was “depleted glutathione metabolites”. Further, the “total GSH” value in test [2] (lower levels of MMS (40 μg/mL)) was “able to keep or even increase their total GSH”. In addition, the “increase in methyl-GSH” value in the test on MEFs is on record as 100 fold.

`CNC(=O)c1cc(Oc2ccc(NC(=O)Nc3ccc(Cl)c(C(F)(F)F)c3)cc2)ccn1` [sorafenib, 4-[4-[[4-chloro-3-(trifluoromethyl)phenyl]carbamoylamino]phenoxy]-N-methyl-pyridine-2-carboxamide]: the “invasion with CM from treated cells” value in the test on MDA-MB231 cells was “unable to invade Boyden Chambers”. Also, the “angiogenesis with CM from treated cells” value in the test with human endothelial cells is on record as “inhibition of angiogenesis”.
